Test results published in article PMC6757289, “Design and Characterization of SGK3-PROTAC1, an Isoform Specific SGK3 Kinase PROTAC Degrader” (ACS Chemical Biology, 2019).

Tests used:
Assay in all cases: IC50 determination, biochemical kinase assay
[1] = target: T1, SGK3 (Homo sapiens, UniProt Q96BR1); conditions: not in the presence of VHL
T1 sequence (Q96BR1 1-496): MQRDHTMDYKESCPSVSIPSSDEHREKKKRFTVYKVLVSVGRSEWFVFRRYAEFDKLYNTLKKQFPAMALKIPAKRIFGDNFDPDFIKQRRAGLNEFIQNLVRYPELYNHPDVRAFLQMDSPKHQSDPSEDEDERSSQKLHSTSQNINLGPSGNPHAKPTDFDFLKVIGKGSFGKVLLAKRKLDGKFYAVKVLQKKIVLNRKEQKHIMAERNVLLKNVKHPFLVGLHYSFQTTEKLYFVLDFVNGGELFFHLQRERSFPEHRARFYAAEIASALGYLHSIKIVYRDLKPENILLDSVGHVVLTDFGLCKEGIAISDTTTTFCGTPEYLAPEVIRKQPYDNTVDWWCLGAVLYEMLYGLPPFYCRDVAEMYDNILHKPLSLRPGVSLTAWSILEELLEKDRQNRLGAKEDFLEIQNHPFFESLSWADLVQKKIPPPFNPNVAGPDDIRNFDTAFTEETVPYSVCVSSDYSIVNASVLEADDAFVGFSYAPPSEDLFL
Description: (§1) IC50 determination was performed at the MRC PPU International Centre for Protein Kinase Profiling, according to the protocol previously described[47],[48]

[2] = target: S6K1 (Homo sapiens, UniProt P23443, T412E); conditions: for IC50: not in the presence of VHL
Description: as §1

[3] = target: T2, SGK1 (Homo sapiens, UniProt O00141, S422D); conditions: not in the presence of VHL
T2 sequence (O00141 60-431 S422D limits assumed): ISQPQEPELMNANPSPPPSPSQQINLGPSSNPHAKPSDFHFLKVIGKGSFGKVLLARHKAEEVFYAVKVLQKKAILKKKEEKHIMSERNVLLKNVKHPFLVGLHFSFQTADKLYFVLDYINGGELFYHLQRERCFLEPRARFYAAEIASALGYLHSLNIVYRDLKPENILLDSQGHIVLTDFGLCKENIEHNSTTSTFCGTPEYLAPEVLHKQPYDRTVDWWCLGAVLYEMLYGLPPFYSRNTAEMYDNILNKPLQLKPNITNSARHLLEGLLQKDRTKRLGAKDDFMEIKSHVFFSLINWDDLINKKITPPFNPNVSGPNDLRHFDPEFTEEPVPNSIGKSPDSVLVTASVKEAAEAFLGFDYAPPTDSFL

Sequence of S6K1 (P23443 1-421 T412E limits assumed): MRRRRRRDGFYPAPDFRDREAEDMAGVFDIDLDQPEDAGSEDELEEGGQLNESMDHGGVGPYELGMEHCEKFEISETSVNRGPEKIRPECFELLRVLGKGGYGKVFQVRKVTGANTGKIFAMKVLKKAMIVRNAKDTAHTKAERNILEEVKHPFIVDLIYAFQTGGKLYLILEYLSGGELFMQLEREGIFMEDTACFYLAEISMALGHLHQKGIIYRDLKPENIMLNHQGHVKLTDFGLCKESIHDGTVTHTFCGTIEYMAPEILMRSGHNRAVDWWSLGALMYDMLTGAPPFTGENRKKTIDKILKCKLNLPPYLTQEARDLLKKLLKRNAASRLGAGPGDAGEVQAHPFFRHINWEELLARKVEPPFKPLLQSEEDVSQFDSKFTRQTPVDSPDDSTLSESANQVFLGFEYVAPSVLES

Row | Structure (SMILES) | IC50 [1] | IC50 [2] | IC50 [3] | increase of IC50 against S6K1 relative to DAT1 ([2]; 0.16 μM to 1.8 μM)
1 | Cc1ccc(F)c(S(=O)(=O)Nc2ccc(-c3nc(OC[C@H]4CN(CCOCCOCCOCCOCC(=O)N[C@H](C(=O)N5C[C@H](O)C[C@H]5C(=O)NCc5ccc(-c6scnc6C)cc5)C(C)(C)C)CCO4)c4cn[nH]c4n3)cc2)c1 [DAT6] | > 10 µM | > 10 µM | > 10 µM | 
2 | Cc1ccc(F)c(S(=O)(=O)Nc2ccc(-c3nc(OC[C@H]4CN(CCOCCOCCOCC(=O)N[C@H](C(=O)N5C[C@H](O)C[C@H]5C(=O)NCc5ccc(-c6scnc6C)cc5)C(C)(C)C)CCO4)c4cn[nH]c4n3)cc2)c1 [DAT1] | 0.44 µM | 0.16 µM | 1.6 µM | 
3 | Cc1ccc(F)c(S(=O)(=O)Nc2ccc(-c3nc(OC[C@H]4CN(CCCCCCOCCOCCOCC(=O)N[C@H](C(=O)N5C[C@H](O)C[C@H]5C(=O)NCc5ccc(-c6scnc6C)cc5)C(C)(C)C)CCO4)c4cn[nH]c4n3)cc2)c1 [SGK3-PROTAC1] |  | 1.8 µM | 0.22 µM | approximately 10 fold
4 | Cc1ccc(F)c(S(=O)(=O)Nc2ccc(-c3nc(OC[C@H]4CN(CCOCCOCC(=O)N[C@H](C(=O)N5C[C@H](O)C[C@H]5C(=O)NCc5ccc(-c6scnc6C)cc5)C(C)(C)C)CCO4)c4cn[nH]c4n3)cc2)c1 [DAT5] | > 10 µM | > 10 µM | > 10 µM | 
5 | COc1ccc(Cl)c(S(=O)(=O)Nc2ccc(-c3nc(OC[C@H]4CN(CCCCCCOCCOCCOCCOCC(=O)N[C@H](C(=O)N5C[C@H](O)C[C@H]5C(=O)NCc5ccc(-c6scnc6C)cc5)C(C)(C)C)CCO4)c4c(C)n[nH]c4n3)cc2)c1 [DAT11] | 0.73 µM | 1.8 µM | 1.34 µM | 
6 | COc1ccc(Cl)c(S(=O)(=O)Nc2ccc(-c3nc(OC[C@H]4CNCCO4)c4c(C)n[nH]c4n3)cc2)c1 [290-R, reference compound] | 0.035 µM | 0.01 µM | 0.019 µM | 
7 | Cc1ccc(F)c(S(=O)(=O)Nc2ccc(-c3nc(OC[C@H]4CN(CCOCCOCCOCCOCCOCC(=O)N[C@H](C(=O)N5C[C@H](O)C[C@H]5C(=O)NCc5ccc(-c6scnc6C)cc5)C(C)(C)C)CCO4)c4cn[nH]c4n3)cc2)c1 [DAT7] | > 10 µM | > 10 µM | > 10 µM | 
8 | Cc1ccc(F)c(S(=O)(=O)Nc2ccc(-c3nc(OC[C@H]4CN(CCCCCCOCCCCCCOCC(=O)N[C@H](C(=O)N5C[C@H](O)C[C@H]5C(=O)NCc5ccc(-c6scnc6C)cc5)C(C)(C)C)CCO4)c4cn[nH]c4n3)cc2)c1 [DAT10] | > 10 µM | > 10 µM | > 10 µM | 
9 | Cc1ccc(F)c(S(=O)(=O)Nc2ccc(-c3nc(OC[C@H]4CN(CCCCCCOCCOCCOCC(=O)N[C@H](C(=O)N5C[C@@H](O)C[C@H]5C(=O)NCc5ccc(-c6scnc6C)cc5)C(C)(C)C)CCO4)c4cn[nH]c4n3)cc2)c1 [cisSGK3-PROTAC1] |  | 1.7 µM | 1.4 µM | 
10 | Cc1ccc(F)c(S(=O)(=O)Nc2ccc(-c3nc(OC[C@H]4CNCCO4)c4cn[nH]c4n3)cc2)c1 [308-R, reference compound] | 0.005 µM | 0.001 µM |  | 
